Where a SMILES comes first, the peptide text is derived from it.
What was measured:
HLA-A2.1 = HLA-A2.1 (Homo sapiens, UniProt P04439, D140Y/D185E/D98H/E176V/E277Q/G131W/G231S/I119V/I121R/I166T/I218V/L300P/L318F/N151K/N90K/P208A/P217A/Q86G/Q94H/R138H/R169H/T345S); test: HLA-A2.1 binding assay of modified peptides, inhibition of radiolabeled Hbc 18-27 (Example 5); conditions: for IC50: modified gp100 G9-154 peptides, read-out: Binding affinity to HLA-A2.1
[1] = tested on: T2 cell lines preincubated with peptide; test: Recognition of modified peptides by natural epitope (M9-2, G9-154, G9-209, G9-280) reactive T-cells, 51Cr release on peptide-pulsed T2 cells (Example 5); format: cell-based, human
Protocol: Assessment of antigen recognition by CTL. ^51Cr release cytotoxic assays were performed to detect the recognition of peptide and melanoma cells by CTL. To analyze peptide recognition, T2 cell lines were preincubated for 2 h at 37° C. with 1 ug/ml peptide, washed and used as target cells in a ^51Cr release cytotoxic assay. The melanoma lines 624mel was established in our laboratory (See Example 1).
In order to make more immunogenic peptides for induction of anti-melanoma T-cells than natural melanoma epitopes, a variety of peptides in which at least 1 amino acid was changed based on consensus motifs in peptides binding to a specific MHC Class I allele Falk, et al. (1991) Nature 351:290; Kubo et al. (1994) J. Immunol 152:3913; Parker, K. et al. (1992) Journal of Immunology 149:3580; Ruppert, J. et al. (1993) Cell 74:929-937) (Tables 14, 15, 16, and 17). […] By changing amino acid at the 1st, 2nd, 3rd or 9th positions which are important for HLA-A2 binding to the peptide, but less important for recognition by T-cell receptors, artificial peptides which can bind to HLA-A2.1 with higher affinity and still be recognized by natural epitope specific T-cells may be generated.

In the case of `CC(C)[C@H](NC(=O)[C@H](CCC(N)=O)NC(=O)[C@H](Cc1c[nH]c2ccccc12)NC(=O)[C@H](Cc1ccc(O)cc1)NC(=O)[C@H](CCC(N)=O)NC(=O)CNC(=O)[C@H](Cc1c[nH]c2ccccc12)NC(=O)[C@@H](NC(=O)[C@@H](N)Cc1c[nH]c2ccccc12)[C@@H](C)O)C(=O)O` [G9-154-1W] (H-WTWGQYWQV-OH; N-terminus and C-terminus assumed), the IC50 (HLA-A2.1) is reported as 60 nM and the “Recognition by G9-154 reactive T-cell” value [1] is reported as “−”.

For `CSCC[C@H](NC(=O)[C@@H](N)CCCCN)C(=O)N[C@@H](Cc1c[nH]c2ccccc12)C(=O)NCC(=O)N[C@@H](CCC(N)=O)C(=O)N[C@@H](Cc1ccc(O)cc1)C(=O)N[C@@H](Cc1c[nH]c2ccccc12)C(=O)N[C@@H](CCC(N)=O)C(=O)N[C@H](C(=O)O)C(C)C` [G9-154-2M] (H-KMWGQYWQV-OH; N-terminus and C-terminus assumed), the IC50 (HLA-A2.1) was 6.5 nM and the “Recognition by G9-154 reactive T-cell” value [1] was “+ (+, recognized)”.

For `CC(C)C[C@H](NC(=O)[C@@H](N)Cc1ccccc1)C(=O)N[C@@H](Cc1c[nH]c2ccccc12)C(=O)NCC(=O)N[C@@H](CCC(N)=O)C(=O)N[C@@H](Cc1ccc(O)cc1)C(=O)N[C@@H](Cc1c[nH]c2ccccc12)C(=O)N[C@@H](CCC(N)=O)C(=O)N[C@H](C(=O)O)C(C)C` [G9-154-1F2L] (H-FLWGQYWQV-OH; N-terminus and C-terminus assumed), the IC50 (HLA-A2.1) was 2.6 nM and the “Recognition by G9-154 reactive T-cell” value [1] was “−”.

For `CC[C@H](C)[C@H](N)C(=O)N[C@@H](CCSC)C(=O)N[C@@H](CC(=O)O)C(=O)N[C@@H](CCC(N)=O)C(=O)N[C@H](C(=O)N1CCC[C@H]1C(=O)N[C@@H](Cc1ccccc1)C(=O)N[C@@H](CO)C(=O)N[C@H](C(=O)O)C(C)C)C(C)C` [G9-209-2M], the “binding affinity to HLA-A2.1 compared with the natural epitope” value (HLA-A2.1) was “higher binding affinity”, the “Recognition by G9-209 reactive T-cell” value [1] was “+ (+, recognized)” and the “recognition by the original melanoma reactive T-cells” value [1] was “recognized”.

`CC[C@H](C)[C@H](N)C(=O)N[C@H](C(=O)N[C@@H](CC(=O)O)C(=O)N[C@@H](CCC(N)=O)C(=O)N[C@H](C(=O)N1CCC[C@H]1C(=O)N[C@@H](Cc1ccccc1)C(=O)N[C@@H](CO)C(=O)N[C@H](C(=O)O)C(C)C)C(C)C)[C@@H](C)CC` [G9-209-2I] was tested, and the “binding affinity to HLA-A2.1 compared with the natural epitope” value (HLA-A2.1) was “higher binding affinity”, the “Recognition by G9-209 reactive T-cell” value [1] was “+ (+, recognized)” and the “recognition by the original melanoma reactive T-cells” value [1] was “recognized”.

With `CC(C)C[C@H](N)C(=O)N[C@H](C(=O)N[C@@H](Cc1c[nH]c2ccccc12)C(=O)NCC(=O)N[C@@H](CCC(N)=O)C(=O)N[C@@H](Cc1ccc(O)cc1)C(=O)N[C@@H](Cc1c[nH]c2ccccc12)C(=O)N[C@@H](CCC(N)=O)C(=O)N[C@H](C(=O)O)C(C)C)[C@@H](C)O` [G9-154-1L] (H-LTWGQYWQV-OH; N-terminus and C-terminus assumed) the IC50 (HLA-A2.1) was 3.4 nM and the “Recognition by G9-154 reactive T-cell” value [1] was “+ (+, recognized)”.

`CC[C@H](C)[C@H](N)C(=O)N[C@@H](CC(C)C)C(=O)N[C@@H](CC(=O)O)C(=O)N[C@@H](CCC(N)=O)C(=O)N[C@H](C(=O)N1CCC[C@H]1C(=O)N[C@@H](Cc1ccccc1)C(=O)N[C@@H](CO)C(=O)N[C@H](C(=O)O)C(C)C)C(C)C` [G9-209-2L] was tested, and the “binding affinity to HLA-A2.1 compared with the natural epitope” value (HLA-A2.1) was “higher binding affinity”, the “Recognition by G9-209 reactive T-cell” value [1] was “+ (+, recognized)” and the “recognition by the original melanoma reactive T-cells” value [1] was “recognized”.

For `CC(C)[C@H](NC(=O)[C@H](CCC(N)=O)NC(=O)[C@H](Cc1c[nH]c2ccccc12)NC(=O)[C@H](Cc1ccc(O)cc1)NC(=O)[C@H](CCC(N)=O)NC(=O)CNC(=O)[C@H](Cc1c[nH]c2ccccc12)NC(=O)[C@@H](NC(=O)[C@H](C)N)[C@@H](C)O)C(=O)O` [G9-154-1A] (H-ATWGQYWQV-OH; N-terminus and C-terminus assumed), the IC50 (HLA-A2.1) was 5.2 nM and the “Recognition by G9-154 reactive T-cell” value [1] was “+ (+, recognized)”.
